Patent US20120135952A1, “BUTYRIC ACID SALT OF N,N-DIMETHYL IMIDOCARBON IMIDIC DIAMIDE, METHOD OF PREPARING SAME, AND PHARMACEUTICAL COMPOSITIONS AND COMBINATIONS CONTAINING SAME” (Hanall Biopharma Co., Ltd., priority 2009, published 2012)
Where a name gives a salt, the structure may show the parent alone. Read-outs that look alike come from different tables or passages of the source.

Experiments:
[1] = tested on: Human breast cancer-derived MCF7 cells; test: MTT assay, cancer cell viability and growth inhibition (MCF7); details: for CELLULAR VIABILITY (%): 72 hours, relative to untreated cells; for IC50: read-out: GROWTH INHIBITORY CONCENTRATION (GIC50), MCF7, 72 hours, MTT
Description: (§1) Human breast cancer-derived MCF7 cells and lung cancer-derived A549 cells were used as a test system.
(§2) MCF7 cells and A549 cells cultured in a DMEM containing 10% fetal bovine serum were respectively dispensed at a cell density of about 5×10^3 cells/well on a 96-well plate, followed by culturing for about 24 hours.
(§3) The resulting formazane crystal was dissolved in dimethyl sulfoxide (DMSO), and absorbance of the solution was measured at 560 nm.

[2] = tested on: lung cancer-derived A549 cells; test: MTT assay, cancer cell viability and growth inhibition (A549); details: for CELLULAR VIABILITY (%): 72 hours, relative to untreated cells; for IC50: read-out: GROWTH INHIBITORY CONCENTRATION (GIC50), A549, 72 hours, MTT
Description: as §1, §2, §3

[3] = tested on: Human breast cancer-derived MCF7 cells; details: 72 h
Description: as §1, §2, §3

[4] = tested on: lung cancer-derived A549 cells; details: human, 72 h
Description: as §1, §2, §3

Row | Structure (SMILES) | CELLULAR VIABILITY (%) ([1]; MCF7, 2 mM) | CELLULAR VIABILITY (%) ([1]; MCF7, 10 mM) | CELLULAR VIABILITY (%) ([1]; MCF7, 10 mM, listed as metformin butyrate) | IC50 [1] | CELLULAR VIABILITY (%) ([2]; A549, 2 mM) | CELLULAR VIABILITY (%) ([2]; A549, 10 mM) | CELLULAR VIABILITY (%) ([2]; A549, 10 mM, listed as metformin butyrate) | IC50 [2] | CELLULAR VIABILITY (%) ([3]; 2 mM) | CELLULAR VIABILITY (%) ([3]; 10 mM) | CELLULAR VIABILITY (%) ([4]; 2 mM) | CELLULAR VIABILITY (%) ([4]; 10 mM) | CELLULAR VIABILITY (%) ([1]; MCF7, 2 mM, hydrochloride) | CELLULAR VIABILITY (%) ([1]; MCF7, 10 mM, hydrochloride) | CELLULAR VIABILITY (%) ([2]; A549, 2 mM, hydrochloride) | CELLULAR VIABILITY (%) ([2]; A549, 10 mM, hydrochloride)
1 | CN(C)C(=N)NC(=N)N [Metformin butyrate, N,N-dimethyl imidodicarbonimidic diamide butyrate] | 45.5% | 19.9% | less than 20% | 1600 µM | 57.7% | 11.7% | less than 20% | 2500 µM |  |  |  |  |  |  |  | 
2 | CCCC(=O)O [Butyric acid, butyric acid] |  |  |  | 2200 µM |  |  |  | 5200 µM | 53.9% | 22.3% | 78.6% | 28.3% |  |  |  | 
3 | CN(C)C(=N)N=C(N)N [Metformin hydrochloride, metformin hydrochloride] |  |  |  | > 10000 µM |  |  |  | 3600 µM |  |  |  |  | 86.5% | 73.6% | 63.5% | 39.6%
